Columns and labels:
[1] = system: Acinetobacter calcoaceticus Ac11; format: cell-based; conditions: 100% inhibition of growth after 18–20 h
[2] = system: Bacillus subtilis ATCC 6051; format: cell-based; conditions: 100% inhibition of growth after 18–20 h
[3] = system: human red blood cells (hRBC); assay: Hemolysis of human red blood cells; format: cell-based; conditions: hRBC
How it was run: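 Washed fresh erythrocytes at 5% v/v final in PBS pH 7.3 exposed to peptide 30 min at 37° C with agitation. Hemoglobin release read as supernatant absorbance at 540 nm after centrifugation, scaled between PBS (0%) and 1% Triton (100%).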

[4] = system: Micrococcus Iuteus ATCC 9341; assay: Antibacterial activity (MIC), growth inhibition in LB medium; format: cell-based, Micrococcus luteus; conditions: 100% inhibition of growth after 18–20 h
How it was run: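 Bacteria at 10^6 CFU/ml in LB mixed 1:1 with 2-fold serial peptide dilutions in water or 66% pooled normal human serum in PBS. After 18–20 h at 37° C, growth inhibition read by absorbance at 492 nm to give MIC.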

[5] = system: Candida albicans (IP886-65); assay: Antifungal activity (MIC); format: cell-based; conditions: 100% inhibition of growth after 48 h at 30° C.
Description: (§1) The antifungal activity of the pardaxin-derived peptides 1 and 16 (see Example 1 above) was examined in sterile 96-well plates (Nunc F96 microtiter plates) in a final volume of 100 μL as follows: Fifty microliters of a suspension containing fungi at concentration of 1×10^6 Colony-Forming Units (CFU)/ml in culture medium (Sabouraud's glucose broth medium) was added to 50 μL of water containing the peptide in serial 2-fold dilutions in water. Inhibition of growth was determined by measuring the absorbance at 492 nm with a Microplate autoreader E1309 (Bio-tek Instruments), after an incubation time of 48 h at 30° C. […] The fungi used were: Candida albicans (IP886-65) and Cryptococcus neoformans (IP960-67).

[6] = system: Cryptococcus neoformans (IP960-67); assay: Antifungal activity (MIC); format: cell-based; conditions: 100% inhibition of growth after 48 h at 30° C.
Description: as §1

Bacillus megaterium Bm11 = format: cell-based; conditions: 100% inhibition of growth after 18–20 h
Escherichia coli D21 = format: cell-based; conditions: 100% inhibition of growth after 18–20 h

CC[C@H](C)[C@H](NC(=O)[C@H](CCCCN)NC(=O)[C@H]1CCCN1C(=O)[C@@H](NC(=O)[C@H](CC(C)C)NC(=O)[C@H](C)NC(=O)[C@H](Cc1ccccc1)NC(=O)[C@H](Cc1ccccc1)NC(=O)CN)[C@@H](C)CC)C(=O)N[C@H](C(=O)N[C@@H](CO)C(=O)N[C@@H](CO)C(=O)N1CCC[C@H]1C(=O)N[C@@H](CC(C)C)C(=O)N[C@@H](Cc1ccccc1)C(=O)N[C@@H](CCCCN)C(=O)N[C@H](C(=O)N[C@H](CC(C)C)C(=O)N[C@H](CC(C)C)C(=O)N[C@@H](CO)C(=O)N[C@@H](C)C(=O)N[C@H](C(=O)NCC(=O)N[C@@H](CO)C(=O)N[C@@H](C)C(=O)N[C@@H](CC(C)C)C(=O)N[C@@H](CO)C(=O)N[C@@H](CO)C(=O)N[C@@H](CO)C(=O)NCC(=O)NCC(=O)N[C@@H](CCC(N)=O)C(=O)N[C@@H](CCC(=O)NCCN)C(=O)NCCN)C(C)C)[C@@H](C)O)[C@@H](C)CC [Peptide 1, [D]P^7L^18L^19-TApar]
Minimal Inhibitory Concentration A. calcoaceticus (Ac11) [1]: 6 µM
Minimal Inhibitory Concentration B. subtilis (ATCC 6051) [2]: 3 µM
% hemolysis at 50 μM peptide ([3]; 50 μM peptide, 30 min at 37° C.): 5%
hemolytic activity up to the maximum concentration tested ([3]; up to 50 μM): practically devoid of hemolytic activity
Minimal Inhibitory Concentration M. luteus (ATCC 9341) [4]: 12.5 µM
Minimal Inhibitory Concentration Candida albicans (IP886-65) [5]: 35 µM
Minimal Inhibitory Concentration Cryptococcus neoformans (IP960-67) [6]: 50 µM
Minimal Inhibitory Concentration B. megaterium (Bm11) (Bacillus megaterium Bm11): 0.9 µM
Minimal Inhibitory Concentration E. coli (D21) (Escherichia coli D21): 6 µM
